Some test systems named below: RXF-631 renal; SNB-78 CNS; DMS 114 small cell lung; HOP-18 NSCLC; LXFL 529 NSCLC; DMS 273 small cell lung; KM20L2 colon; XF 498 CNS.
What all share (assay): NCI anticancer screen, dose series, 48 h

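48-hour exposure; five concentrations; linearly interpolated endpoints. TGI is the concentration that stops growth completely.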 A value given as a limit tells only on which side of the number the result lay.

For the compound `O=C(O)c1c[nH]c2c(=O)[nH]cnc12`, the TGI with RXF-631 renal, in the assay on SNB-78 CNS, in the assay on DMS 114 small cell lung, in the assay on HOP-18 NSCLC and in the assay with LXFL 529 NSCLC was > 100 µM throughout.
For `CC12CCC([C@H](N3CCOCC3)/C1=N\OCCN1CCCC1)C2(C)C` (some centres not stated), the TGI in the assay on DMS 273 small cell lung, in the assay with KM20L2 colon, with RXF-631 renal, in the assay with SNB-78 CNS, in the assay on DMS 114 small cell lung and in the assay on HOP-18 NSCLC was > 100 µM throughout. In the assay on LXFL 529 NSCLC, the TGI is > 100 µM.
As for `C#CCSc1nc(N)c2ncn(C3OC(CO)C(O)C3O)c2n1` (configuration not stated), the TGI in the assay on DMS 273 small cell lung, in the assay on XF 498 CNS, with SNB-78 CNS, with DMS 114 small cell lung and in the assay with LXFL 529 NSCLC was > 100 µM in each case.
As for `O=C(C/C(=N\NC(=O)C[n+]1ccccc1)C(=O)Nc1nc2ccc([N+](=O)[O-])cc2s1)CC(c1ccccc1)c1c(O)c2ccccc2oc1=O` (configuration not stated), the TGI with KM20L2 colon and in the assay with DMS 114 small cell lung was > 100 µM throughout.
Turning to `O=C(CC(=O)C(=O)Nc1ccccc1)CC(c1ccccc1)c1c(O)c2ccccc2oc1=O` (configuration not stated), the TGI in the assay with DMS 273 small cell lung, with KM20L2 colon, in the assay with RXF-631 renal, with DMS 114 small cell lung and in the assay with HOP-18 NSCLC was > 100 µM in each case.
As for `C=C[C@@]1(C)CCC2(O)C(CCC3C2(C)CCC[C@@]3(C)COC(=O)CC(=O)OC)C1` (some centres not stated), the TGI with KM20L2 colon stood at 33.6 µM; in the assay with XF 498 CNS it was 40.6 µM; in the assay on RXF-631 renal, 38.2 µM; in the assay with SNB-78 CNS, 68.9 µM; with LXFL 529 NSCLC, 33 µM.
`C=CCC1C(=O)C(C(=O)OC)N2CCc3c([nH]c4ccccc34)C12` (configuration not stated): the TGI in the assay on KM20L2 colon, in the assay on DMS 114 small cell lung and in the assay with LXFL 529 NSCLC was > 100 µM throughout.
Consider `CC1(c2cccc3c2C2(O)C=CC4(CCC32)OCCO4)OCCO1` (configuration not stated), for which the TGI in the assay with DMS 273 small cell lung, in the assay with KM20L2 colon, in the assay on SNB-78 CNS, in the assay on DMS 114 small cell lung, in the assay on HOP-18 NSCLC and in the assay on LXFL 529 NSCLC was > 100 µM each time.
For `CCCCCCCC(=O)OC[C@@H](C[As](=O)(O)O)OC(=O)CCCCCCC`, the TGI in the assay on DMS 273 small cell lung came out at 26.1 µM; with KM20L2 colon, 31.2 µM; in the assay with SNB-78 CNS it was 30.8 µM; with DMS 114 small cell lung, 22.3 µM; with HOP-18 NSCLC it was 44.1 µM; in the assay with LXFL 529 NSCLC, 25.3 µM.
`COC(=O)C1CC(=O)CCC1c1ccccc1` (configuration not stated): the TGI in the assay with DMS 273 small cell lung, with KM20L2 colon, in the assay with SNB-78 CNS, with DMS 114 small cell lung, with HOP-18 NSCLC and with LXFL 529 NSCLC was > 100 µM in each case.
As to `O=C1CSC(/C(=C/c2ccccc2)c2nc3ccccc3[nH]2)=N1`, the TGI in the assay on KM20L2 colon, in the assay with XF 498 CNS, in the assay with SNB-78 CNS, in the assay on DMS 114 small cell lung and with LXFL 529 NSCLC was > 100 µM each time.
Consider `CC1=CCC2(C#N)CCC1C2O` (configuration not stated), for which the TGI in the assay with DMS 273 small cell lung, in the assay on KM20L2 colon, in the assay on XF 498 CNS, with SNB-78 CNS, in the assay with DMS 114 small cell lung and with HOP-18 NSCLC was > 100 µM each time. For the same compound, the TGI in the assay with LXFL 529 NSCLC was > 100 µM.
